According to patent US20140271517A1, “DEODORANT FORMULATION” (priority 2013, published 2014):

Columns and labels:
[1] = reported pH of the agent; cited from earlier work
[2] = broad cross section of people; '16-20 hour protection and more'; previously presented in U.S. Pat. No. 5,512,274; cited from earlier work
[3] = test system: microorganisms responsible for the odour in perspiration; assay: destruction of odour-causing microorganisms; conditions: disinfectant agent in the MgO/ZnO deodorant formulation, 0.5% to 1% by weight
Description: It is believed that the previously recognized synergy between the zinc and magnesium compounds has been further augmented with the disinfection capacity of a potassium and/or […]. Turning to the specific formulations, in a first embodiment, the deodorant formulation includes magnesium oxide in an amount of between 1% and 2.5% by weight and zinc oxide in an amount of between 0.5% and 1.5% by weight. In order to further augment the efficacy of the formulation, a disinfectant agent is included. As an example, potassium sulfate in an amount of between 0.5% and 1% by weight. Propylene glycol in an amount between 45% and 57% by weight is included. Other polyols may be substituted such as glycenol, etc. Sodium stearate is also present in am amount between 4% and 8% by weight. Glycerin is also present in an amount from between 6% and 10% by weight. The balance of the formulation is obviously water. […] The provision for the suspension is very convenient, since the active ingredients are all present and this suspension can used as a precursor in the formulation of other deodorizing products.

Row | Compound | pH [1] | duration of deodorant protection [2] [h] | efficacy in destroying the microorganisms responsible for the odour in perspiration [3]
1 | [Ca+2].[OH-].[OH-] [Lime, calcium hydroxide] | ≥ 12.5 |  | 
2 | [Mg+2].[OH-].[OH-] [magnesium hydroxide] | ~10.0 | 16 to 20 | 
3 | O=S(=O)([O-])[O-].[K+].[K+] [potassium sulfate] |  |  | particularly effective
